The text below walks through data of patent US10450299B2, “Substituted quinazoline derivatives as DNA methyltransferase inhibitors” (Pierre Fabre Medicament, priority 2015, dated 2019).

Data set [1] deals with T1, His-DNMT1 (182 kDa, human) (Homo sapiens, UniProt P26358).
T1 construct: His; made in house
Kind of data set: DNMT1 assay (tritiated SAM Flashplate methylation assay). Format: biochemical. The following applies: for inhibition at 10 µM: compound at 10 μM; for inhibition at 32 µM: compound at 32 μM. As for the experimental part: His-DNMT1 (182 kDa, human) was cloned, expressed and purified as described in Halby et al. (ChemBioChem 2012, 13, 157-65). The reaction was performed in a 10 μL total reaction volume in low volume NBS™ 384-well microplates (Corning), containing the tested compound (up to 1% DMSO), 1 μM of a SAM/[methyl-^3H] SAM (3 TBq/mmol, PerkinElmer) mix in a ratio of 3-to-1 (isotopic dilution 1*:3), 0.3 μM of biotinylated hemimethylated DNA duplex (5′-GATmCGCmCGATGmCGmCGAATmCGmCGATmCGATGmCGAT-3′ and BIOT-5′-[…]-3′), and 90 nM of DNMT1 in methylation buffer (20 mM HEPES pH 7.2, 1 mM EDTA, 50 mM KCl, 25 μg/mL BSA). The reaction was incubated at 37° C. for 2 hours. 8 μL are then transferred into a streptavidin 96-well scintillant coated Flashplate™ (PerkinElmer) containing 190 μL of 20 μM SAH in 50 mM Tris-HCl pH 7.4. The Flashplate™ was agitated at room temperature for 1 hour, washed three times with 200 μL of 0.05% Tween®-20 in 50 mM Tris-HCl pH 7.4, and read in 200 μL of 50 mM Tris-HCl pH 7.4 on TopCount NXT™ (PerkinElmer).

Data set [2] addresses T2, human C-terminal DNMT3A (a.a. 623-908) (Homo sapiens, UniProt Q9Y6K1).
T2 construct: The human C-terminal DNMT3A (a.a. 623-908); made in house
The data set is described as follows: DNMT3A assay (restriction-based fluorescence assay). Format: biochemical. The following applies: for inhibition at 1 µM: compound at 1 μM; for inhibition at 3.2 µM: compound at 3.2 μM. The source says: DNMT3A enzyme inhibition was adapted from the restriction-based fluorescence assay protocol described in Ceccaldi et al. (ChemBioChem 2011, 12, 1337-45). Briefly, a 5′-labelled biotin oligonucleotide is hybridized to its complementary strand labelled with 6-carboxyfluorescein at the 3′-end into a 384 well microplate (black Optiplates; Perkin Elmer) pre-coated with avidin. The duplex contains a unique CpG site overlapping with a restriction site of a methylation sensitive restriction enzyme. The human C-terminal DNMT3A (a.a. 623-908), produced as described in Gros et al. (Nucleic Acids Research 2013 41(19):e185), was added in each well (200 ng/well) and mixed with the chemical compounds at desired concentrations and freshly prepared AdoMet (20 μM final concentration) to start the reaction in a total volume of 50 μL. After 1 hour incubation at 37° C. each well were washed three times with PBS, Tween-20 0.05%, NaCl (500 mM) and three more times with PBST. Specific fluorescent signals were detected with the methylation-sensitive restriction enzyme HpyCH4IV (NEB) as described and measured on a Perkin Elmer Envision detector. The percentage of inhibition is reported. The formula used to calculate the percentage of inhibition is [(X−Y)/X]×100, where X is the signal determined in the absence of the inhibitor and Y is the signal obtained in the presence of the inhibitor. The concentration at which 50% of efficacy of inhibition is observed (EC50) was determined by analysis of a concentration range of the tested compound in triplicates. The non-linear regression fittings with sigmoidal dose-response (variable slope) were performed with GraphPad Prism 4.03 (GraphPad Software).

In data set [3] the test system is KG-1 human leukemia cells. Kind of data set: Anti-proliferative activity on KG-1 (ATPLite cell viability). The following applies: KG-1 cells; for inhibition at 0.1 µM: compound at 0.1 μM, read-out: % proliferation inhibition 0.1 μM; for inhibition at 1 µM: compound at 1 μM, read-out: % proliferation inhibition 1 μM; for inhibition at 5 µM: compound at 5 μM, read-out: % proliferation inhibition 5 μM; for inhibition at 10 µM: compound at 10 μM, read-out: % proliferation inhibition 10 μM. Format: cell-based. The protocol: Anti-Proliferative Activity. (on KG-1)
KG-1 human leukemia cells were obtained from the ATCC (USA) and cultivated in RPMI 1640 medium (with HEPES and Glutamine, BE12-115F, Lonza, France) supplemented with, respectively, 20% and 15% foetal calf serum (Lonza, France), at 37° C. and under 5% CO2. To measure the anti-proliferative properties of tested molecules, 2×10^4 cells are seeded at day 0 in a 96 wells plate. The compounds to be tested, stored at −20° C. as 10^−2 M stock solution in 100% DMSO, are freshly diluted on day 1 in RPMI 1640 medium, before adding a dose range of 3.2 nM to 10 μM to the cells. This treatment is repeated on day 2 and 3, and on day 4 cell viability is assessed using the ATPLite™ kit from Perkin (ATPlite™ 1 Step Luminescence Assay System, ref 3016739), following the provider instructions. The raw data are analyzed with GraphPad Prism software (v4.03) to generate EC50 values corresponding to the compound concentrations giving 50% reduction in cell viability. The values presented are the mean results of at least two independent experiments. […]
At the end of the experiment, cell viability was evaluated by determining the level of ATP released by viable cells.
EC50 values were determined with curve fitting analysis method (non linear regression model with a sigmoid dose response, variable Hill slope coefficient) provided by the Prism Software (GraphPad). Results were expressed as average EC50 values (concentration of tested compound that inhibits 50% of the maximum effect for the considered compound).
In general terms: Cellular ATP, detected with luciferase, serves as a proxy for viable cell number.

Data set [4] concerns luciferase reporter gene under the control of the partially methylated CMV promoter in KG-1 cell line. The data set is described as follows: Gene expression (CMV-Luc reactivation) in KG-1 cells. It counts as cell-based, human. The note with it: 24 h, induction factor vs DMSO control, mean of 3 experiments ± standard error; for Reactivation fold of luciferase gene reporter, 0.1 μM: compound at 0.1 μM; for Reactivation fold of luciferase gene reporter, 1 μM: compound at 1 μM; for Reactivation fold of luciferase gene reporter, 5 μM: compound at 5 μM; for Reactivation fold of luciferase gene reporter, 10 μM: compound at 10 μM. The protocol: Gene Expression. (CMV-Luc Reactivation)
KG-1 cell line, stably transfected with the luciferase Firefly (Luc+ from pGL3 by Promega) reporter gene under the control of the CMV promoter (from pEGFP-N1 by Clontech) partially methylated (50%), is seeded at 20,000 cell per well in 96-well plate. After 24 h of incubation in the presence of the compounds or the solvant DMSO, the induction of the promoter is measured by quantification of luciferase with the Brite-lite™ assay system (Perkin Elmer) according to the manufacturer protocol. The luminescence is measured on EnVision™ Multilabel Plate Reader (Perkin Elmer) and the data are expressed in induction factor compared to the DMSO control condition.

T1 sequence (P26358 whole entry): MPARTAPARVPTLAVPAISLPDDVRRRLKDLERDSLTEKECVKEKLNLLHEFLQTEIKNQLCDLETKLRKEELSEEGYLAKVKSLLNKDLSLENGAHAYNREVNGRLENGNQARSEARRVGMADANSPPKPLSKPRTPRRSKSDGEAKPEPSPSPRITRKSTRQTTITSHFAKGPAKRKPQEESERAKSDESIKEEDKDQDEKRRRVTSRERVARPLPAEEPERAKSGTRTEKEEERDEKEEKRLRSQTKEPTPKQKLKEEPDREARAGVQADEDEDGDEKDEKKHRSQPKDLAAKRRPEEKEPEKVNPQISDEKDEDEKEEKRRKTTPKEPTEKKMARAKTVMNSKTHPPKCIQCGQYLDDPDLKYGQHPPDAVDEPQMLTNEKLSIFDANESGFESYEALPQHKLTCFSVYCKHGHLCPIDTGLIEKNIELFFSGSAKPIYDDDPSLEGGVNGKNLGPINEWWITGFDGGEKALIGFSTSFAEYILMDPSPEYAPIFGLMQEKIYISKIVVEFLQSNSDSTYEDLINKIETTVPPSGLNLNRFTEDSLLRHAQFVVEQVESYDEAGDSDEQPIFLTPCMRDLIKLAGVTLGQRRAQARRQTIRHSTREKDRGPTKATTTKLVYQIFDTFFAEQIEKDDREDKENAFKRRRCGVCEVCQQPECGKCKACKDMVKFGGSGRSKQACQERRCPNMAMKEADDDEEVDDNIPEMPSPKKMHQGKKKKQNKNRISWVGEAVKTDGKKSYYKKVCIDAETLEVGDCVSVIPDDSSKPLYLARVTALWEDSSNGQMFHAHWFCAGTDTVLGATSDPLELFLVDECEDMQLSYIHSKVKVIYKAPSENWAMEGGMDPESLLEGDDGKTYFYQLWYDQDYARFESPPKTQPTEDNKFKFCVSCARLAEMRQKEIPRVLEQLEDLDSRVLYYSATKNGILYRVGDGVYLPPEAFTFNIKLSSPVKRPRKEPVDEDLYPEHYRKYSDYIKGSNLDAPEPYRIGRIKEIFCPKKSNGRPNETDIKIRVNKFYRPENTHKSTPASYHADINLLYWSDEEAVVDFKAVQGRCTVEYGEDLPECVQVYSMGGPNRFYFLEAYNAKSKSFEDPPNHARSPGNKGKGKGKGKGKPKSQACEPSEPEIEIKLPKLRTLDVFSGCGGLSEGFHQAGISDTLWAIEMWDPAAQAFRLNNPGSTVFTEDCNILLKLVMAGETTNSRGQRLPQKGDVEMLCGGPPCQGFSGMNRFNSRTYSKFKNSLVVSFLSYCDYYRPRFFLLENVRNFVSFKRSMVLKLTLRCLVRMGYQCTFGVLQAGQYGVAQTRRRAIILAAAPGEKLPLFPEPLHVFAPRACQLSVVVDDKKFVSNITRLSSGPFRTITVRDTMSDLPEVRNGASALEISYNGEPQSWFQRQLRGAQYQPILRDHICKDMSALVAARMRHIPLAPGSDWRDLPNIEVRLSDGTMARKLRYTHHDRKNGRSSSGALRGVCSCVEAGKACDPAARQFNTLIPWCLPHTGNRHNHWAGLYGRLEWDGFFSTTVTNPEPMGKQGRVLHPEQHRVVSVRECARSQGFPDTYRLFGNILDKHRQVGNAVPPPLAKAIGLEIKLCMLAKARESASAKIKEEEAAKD
T2 sequence (Q9Y6K1 627-912): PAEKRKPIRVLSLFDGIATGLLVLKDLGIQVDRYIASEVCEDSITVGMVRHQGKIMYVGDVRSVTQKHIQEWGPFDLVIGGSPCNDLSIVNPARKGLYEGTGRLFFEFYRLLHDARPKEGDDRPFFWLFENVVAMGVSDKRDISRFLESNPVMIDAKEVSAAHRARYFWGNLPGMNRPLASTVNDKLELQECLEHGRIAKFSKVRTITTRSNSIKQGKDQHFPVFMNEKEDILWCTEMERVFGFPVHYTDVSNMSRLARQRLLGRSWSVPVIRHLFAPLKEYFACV

For `Oc1ccc2c(NCCCc3ccccc3)ncnc2c1CN1CCN(CCNc2ccnc3ccccc23)CC1` [Compound A, 4-((3-phenylpropyl)amino)-8-((1-(2-(quinolin-4-ylamino)ethyl)piperazin-1-ylmethyl))quinazoline-7-ol], in data set [1], the inhibition at 10 µM was 0% and the inhibition at 32 µM turned out to be 0%. Besides, in data set [2], the inhibition at 1 µM came out at 0% and the inhibition at 3.2 µM was determined as 18%. In data set [3], the inhibition at 0.1 µM is -0.8%, the inhibition at 1 µM was determined as 6.1%, the inhibition at 5 µM was determined as 29.7% and the inhibition at 10 µM turned out to be 84.5%. Moreover, in data set [4], the “Reactivation fold of luciferase gene reporter, 0.1 μM” value (from here on “Reactivation fold … 0.1 μM”) was found to be 1.1 ± 0.1 fold; the “Reactivation fold of luciferase gene reporter, 1 μM” value stood at 1.2 ± 0.1 fold; the “Reactivation fold of luciferase gene reporter, 5 μM” value (“Reactivation fold … 5 μM” for short) was determined as 4.4 ± 0.5 fold; the “Reactivation fold of luciferase gene reporter, 10 μM” value (shortened to “Reactivation fold … 10 μM”) worked out at 6.0 ± 0.6 fold.
As usually defined, the EC50 is the midpoint of the concentration-response curve. For the molecule `Clc1nc(NCCCc2ccccc2)c2ccc(OCC3CCN(CCNc4ccnc5ccccc45)CC3)cc2n1` [Compound B, 4-((3-phenylpropyl)amino)-2-chloro-7-((1-(2-(quinolin-4-ylamino)ethyl)piperidin-4-yl)methoxy)quinazoline], in data set [1], the EC50 was determined as 19 µM, the inhibition at 10 µM is 5% and the inhibition at 32 µM was 93%. Also, in data set [2], the inhibition at 1 µM came out at 0% and the inhibition at 3.2 µM was 73%. Besides, in data set [3], the inhibition at 0.1 µM is -1.7%, the inhibition at 1 µM turned out to be 3.8%, the inhibition at 5 µM stood at 95.9% and the inhibition at 10 µM is 99.9%. Besides, in data set [4], the “Reactivation fold … 0.1 μM” value was determined as 1.1 ± 0.0 fold; the “Reactivation fold of luciferase gene reporter, 1 μM” value amounted to 1.4 ± 0.0 fold; the “Reactivation fold … 5 μM” value turned out to be 5.8 ± 1.6 fold; the “Reactivation fold … 10 μM” value came out at 0.0 ± 0.0 fold.
With `CN1CCN(c2nc(NCCCc3ccccc3)c3ccc(OCC4CCN(CCNc5ccnc6ccccc56)CC4)cc3n2)CC1` [Compound C, 4-((3-phenylpropyl)amino)-7-((1-(2-(quinolin-4-ylamino)ethyl)piperidin-4-yl)methoxy)-2-(4-methylpiperazin-1-yl)quinazoline], in data set [1], the 50% effective concentration (EC50) amounted to 23 µM, the inhibition at 10 µM was determined as 0% and the inhibition at 32 µM was found to be 94%. In addition, in data set [2], the inhibition at 1 µM amounted to 0% and the inhibition at 3.2 µM came to 43%. For the same molecule, in data set [3], the inhibition at 0.1 µM is -3.1%, the inhibition at 1 µM is 5.7%, the inhibition at 5 µM is 99.1% and the inhibition at 10 µM is 99.7%. For the same molecule, in data set [4], the “Reactivation fold … 0.1 μM” value came to 1.1 ± 0.0 fold; the “Reactivation fold of luciferase gene reporter, 1 μM” value is recorded as 1.7 ± 0.1 fold; the “Reactivation fold … 5 μM” value was 0.1 ± 0.0 fold; the “Reactivation fold … 10 μM” value is given as 0.0 ± 0.0 fold.
In the case of `CCN(CC)CCNc1nc(NCCCc2ccccc2)c2ccc(OCC3CCN(CCNc4ccnc5ccccc45)CC3)cc2n1` [Compound D, 4-((3-phenylpropyl)amino)-N^2-(2-(diethylamino)ethylenediamine)-7-((1-(2-(quinolin-4-ylamino)ethyl)piperidin-4-yl)methoxy)quinazoline], in data set [1], the response was half-maximal at 13 µM (EC50), the inhibition at 10 µM is 35% and the inhibition at 32 µM stood at 98%. In addition, in data set [2], the inhibition at 1 µM stood at 52% and the inhibition at 3.2 µM amounted to 81%. Besides, in data set [3], the inhibition at 0.1 µM was -2.3%, the inhibition at 1 µM came to 13.2%, the inhibition at 5 µM is 79.7% and the inhibition at 10 µM was 99.5%. In data set [4], the “Reactivation fold … 0.1 μM” value came out at 1.1 ± 0.0 fold; the “Reactivation fold of luciferase gene reporter, 1 μM” value is reported as 1.7 ± 0.0 fold; the “Reactivation fold … 5 μM” value was 12.7 ± 0.6 fold; the “Reactivation fold … 10 μM” value was found to be 1.1 ± 1.0 fold.
Broadly, the melting point is the temperature of the solid-liquid transition. On to `c1ccc(CN2CCC(Nc3nc(N4CCN(c5ccccc5)CC4)nc4cc(OCC5CCN(CCNc6ccnc7ccccc67)CC5)ccc34)CC2)cc1` [Compound G, N-(1-benzylpiperidin-4-yl)-2-(4-phenylpiperazin-1-yl)-7-((1-(2-(quinolin-4-ylamino)ethyl)piperidin-4-yl)methoxy)quinazolin-4-amine], for which the melting point was in the range of 122 to 124 °C. Besides, in data set [1], the EC50 is 10 µM, the inhibition at 10 µM amounted to 54% and the inhibition at 32 µM was found to be 100%. Besides, in data set [2], the inhibition at 1 µM amounted to 57% and the inhibition at 3.2 µM came out at 95%. In data set [3], the inhibition at 0.1 µM is -2.2%, the inhibition at 1 µM worked out at 32.2%, the inhibition at 5 µM came to 99.6% and the inhibition at 10 µM is 99.8%. For the same molecule, in data set [4], the “Reactivation fold … 0.1 μM” value turned out to be 1.1 ± 0.0 fold; the “Reactivation fold of luciferase gene reporter, 1 μM” value is reported as 5.3 ± 0.4 fold; the “Reactivation fold … 5 μM” value amounted to 0.2 ± 0.1 fold; the “Reactivation fold … 10 μM” value turned out to be 0.0 ± 0.0 fold.
`Clc1nc(NCCCc2ccccc2)c2ccc(OCC3CCN(CCNc4ccncc4)CC3)cc2n1` [Compound H]: in data set [2], the inhibition at 1 µM was 0% and the inhibition at 3.2 µM turned out to be 32%.
